Test results as given in patent US20220168300A1, “Methods of Managing Vascular Conditions and Diabetic Peripheral Neuropathies” (Emory University, priority 2019, published 2022).

Legend:
Diabetic EPCs (D-EPCs) = test: DNA methylation (MSRE-PCR) and gene expression of angiogenic genes in D-EPCs; assay type: cell-based, rat
Excerpt: Rescue of epigenetic silencing of angiogenic genes in D-EPCs Diabetic EPCs (D-EPCs) have high methylation in the promoter regions of key angiogenic and neurotrophic genes and small molecular epigenetic regulators can reverse these changes, increase gene expression and improve cellular functions. To prepare D-EPCs streptozotocin (STZ) was used to induce diabetic conditions. Differential expression of angiogenic genes was investigated between normal EPCs (N-EPCs) and D-EPCs using an Angiogenesis Microarray kit. The expression of many angiogenic genes was suppressed in D-EPCs. In this disclosure, histone deacetylase (HDAC) inhibitors, i.e., Vorinostat (Zolinza, SAHA), Belinostat (Beleodaq, PXD-101), and Quisinostat (JNJ-26481585), were used. The preliminary experiments were performed using rat EPCs as well as human and rat MSCs. To test the reversible changes of gene expression and epigenetic modifications in D-EPCs by small molecule epigenetic regulators, epigenetic profiling studies were performed using methylation-sensitive restriction enzyme (MSRE)-PCR assays. An HDAC inhibitor, valproic acid (VPA), was used as the epigenetic regulator.

[1] = Blood glucose and body weight in diabetic mice; assay type: in vivo; conditions: 50 mg/kg/day intraperitoneal for 4 weeks
Method: To investigate the preventive therapeutic effects of direct injection of belinostat on diabetic nerves, streptozotocin (STZ)-induced diabetic mice were randomly assigned to solvent-treated (DM) as vehicle controls or HDAC inhibitor-treated (DM+HDACi) groups. […] Belinostat was resuspended in 45% (2-hydroypropyl)-beta-cyclodextrin (HP-β-CD) and injected into mice via the intraperitoneal route at 50 mg/kg/day for 4 weeks.

[2] = test system: streptozotocin (STZ)-induced diabetic mice; test: Paw thermal withdrawal latency; assay type: in vivo
Method: To investigate the preventive therapeutic effects of direct injection of belinostat on diabetic nerves, streptozotocin (STZ)-induced diabetic mice were randomly assigned to solvent-treated (DM) as vehicle controls or HDAC inhibitor-treated (DM+HDACi) groups. […] For measurement of paw thermal withdrawal latency, mice were placed in an observation chamber on top of the thermal testing apparatus and allowed to acclimate to the warmed glass surface (30° C.) and surroundings for 15 min. The mobile heat source was maneuvered to below the center of the right hind paw and turned on, a process that activates a timer and locally warms the glass surface at a rate of approximately 1° C./s. When the mouse withdrew the paw, movement sensors stopped the timer and turned off the heat source. Right hind paw was measured three times and the mean of three measurements used as a composite source for each mouse. The response latency was converted to the response temperature using a time: floor temperature calibration curve that was constructed each day to allow for day-to-day variations in the surface heating rate.

[3] = test system: streptozotocin (STZ)-induced diabetic mice; test: Rotarod performance test; assay type: in vivo
Method: To investigate the preventive therapeutic effects of direct injection of belinostat on diabetic nerves, streptozotocin (STZ)-induced diabetic mice were randomly assigned to solvent-treated (DM) as vehicle controls or HDAC inhibitor-treated (DM+HDACi) groups. […] For rotarod performance test, mice were placed on a rotarod apparatus to assess motor coordination and physical condition. Before the training session, each mouse was habituated to stay on the spindle with slow constant speed for 5 min. Mice were trained for 5 min at 45 rpm before measurement. The horizontal rod rotating by 45 rpm and the maximal length of observation time for each trial was 5 min.

[4] = test system: streptozotocin (STZ)-induced diabetic mice; test: Intraepidermal nerve fiber density (PGP9.5 staining) in hind paw plantar skin; assay type: in vivo; conditions: DM+HDACi group
Excerpt: To investigate the preventive therapeutic effects of direct injection of belinostat on diabetic nerves, streptozotocin (STZ)-induced diabetic mice were randomly assigned to solvent-treated (DM) as vehicle controls or HDAC inhibitor-treated (DM+HDACi) groups. […] To evaluate the protective effect of belinostat on diabetic intraepidermal nerve fiber, we stained IENF in hind paw plantar skin with pan-neuronal marker PGP9.5 and counted the number of fibers throughout the epidermis relative to length of tissue.

[5] = test system: streptozotocin (STZ)-induced diabetic mice; test: Sensory and motor nerve conduction velocities in diabetic neuropathy model; assay type: in vivo
Method: To investigate the preventive therapeutic effects of direct injection of belinostat on diabetic nerves, streptozotocin (STZ)-induced diabetic mice were randomly assigned to solvent-treated (DM) as vehicle controls or HDAC inhibitor-treated (DM+HDACi) groups. […] After intraperitoneal injection of belinostat or an equal volume of solvent vehicle (HP-β-CD), both sensory and motor nerve conduction velocities (NCVs) were measured for 18 weeks at every week (n=11-14, each group) from 0 week after treatment. Non-diabetic mice, which received solvent vehicle (HP-j-CD), were used as controls (NDM).

[6] = test system: streptozotocin (STZ)-induced diabetic mice; test: Light and electron microscopy of sciatic nerve myelinated fibers; assay type: in vivo; conditions: DM+HDACi
Excerpt: To investigate the preventive therapeutic effects of direct injection of belinostat on diabetic nerves, streptozotocin (STZ)-induced diabetic mice were randomly assigned to solvent-treated (DM) as vehicle controls or HDAC inhibitor-treated (DM+HDACi) groups. […] It was examined whether belinostat could affect the ultrastructure of diabetic nerves, which is characterized by morphological alterations in the myelin sheath, a hallmark of DN. Accordingly, light microscopy and transmission electron microscopy were performed on sciatic nerves obtained at 18 weeks after STZ injection. The alternation of myelination pattern was categorized into four groups: decompaction, infolding, focal lysis, and splitting. […] Axonal atrophy is associated with slowing of nerve conduction but is difficult to distinguish from loss of large diameter axons. A reduced index of circularity and an increased g-ratio supports the axonal atrophy. […] A loss of large diameter axons in the peripheral nerve system is the most frequent consequence of metabolic diseases such as diabetes.

[7] = test system: streptozotocin (STZ)-induced diabetic mice; test: Vascularization of sciatic nerves (FITC-conjugated BSL1); assay type: in vivo; conditions: DM+HDACi, 18 weeks after treatment
[8] = test system: HUVECs, Schwann cells (S16), and DRG neurons (ND7/23); test: Quantitative RT-PCR of gene expression in cells cultured in diabetic (high glucose) condition; conditions: in vitro experimental data using cells
Method: To determine effects of different types of HDAC inhibitors on different target cells, cells were cultured in diabetic condition (450 mg/dl glucose, 7 days) and were treated HDAC inhibitors for 7 days.

[9] = test system: streptozotocin (STZ)-induced diabetic mice; test: Tactile allodynia (von Frey hair testing); assay type: in vivo
Method: To investigate the preventive therapeutic effects of direct injection of belinostat on diabetic nerves, streptozotocin (STZ)-induced diabetic mice were randomly assigned to solvent-treated (DM) as vehicle controls or HDAC inhibitor-treated (DM+HDACi) groups. […] To investigate preventive effects of belinostat in diabetic neuropathy, tactile response threshold, thermal withdrawal latency, and rotarod performance were tested. For assay of tactile allodynia, mice were transferred to a glass cage with a wire mesh floor allowing access to the plantar surface of the hind paws. Behavioral accommodation was allowed for approximately 15 min until cage exploration and major grooming activities ceased.

[10] = leading to increases in H3/H4 acetylation in brain tissue; cited from earlier work
[11] = sciatic nerve 18 weeks after STZ, n=406
[12] = sciatic nerve, P<0.001 versus DM

Which angiogenic gene expression (Diabetic EPCs (D-EPCs)) does the source give for `CCCC(CCC)C(=O)O` [VPA, valproic acid] here?
Its angiogenic gene expression is “enhanced gene expression”.

What about the “DNA methylation at promoters of angiogenic genes” value (Diabetic EPCs (D-EPCs); MSRE-PCR) of the same compound?
Its value is “reduced DNA methylation”.

For `O=C(/C=C/c1cccc(S(=O)(=O)Nc2ccccc2)c1)NO` [Belinostat, (E)-N-hydroxy-3-[3-(phenylsulfamoyl)phenyl]prop-2-enamide], which “blood glucose levels and animal body weight compared to DM group” value [1] is on record?
Its value is “did not significantly alter”.

And the paw withdrawal temperature ([2]; DM+HDACi group at 12 weeks of diabetes, P<0.001 versus DM)?
Its paw withdrawal temperature is 34.30±0.24 °C.

What about the “thermal withdrawal latency, effect in words” value ([2]; FIG. 2B, HDAC treated group) of the same compound?
The value was “maintained”.

And the rotarod fall latency ([3]; DM+HDACi group, 45 rpm, max 5 min)?
The rotarod fall latency was 254.77 ± 25.23 s.

What about the “rotarod performance, DM versus DM+HDACi” value ([3]; FIG. 2C) of the same compound?
Its value is “no significant difference”.

And the “number of intraepidermal nerve fibers (IENF)” value [4]?
Its value is 30.61±1.83 IENF/mm.

And the “sensory NCV” value ([5]; DM+HDACi group, over 15 weeks, 50 mg/kg/day i.p. for 4 weeks, P<0.001 versus DM)?
Its value is 34.76±0.61 m/s.

And the “motor NCV” value ([5]; DM+HDACi group, over 15 weeks, 50 mg/kg/day i.p. for 4 weeks, P<0.05 versus DM)?
Its value is 51.15±2.60 m/s.

And the “nerve conduction velocities (NCVs), effect in words” value ([5]; FIG. 1A, direct injection, diabetic mice)?
Its value is “improved”.

What about the “motor NCVs, effect in words” value ([5]; FIG. 1B, diabetic mice over 15 weeks) of the same compound?
Its value is “significantly improved”.

What about the “g-ratio of myelinated sciatic nerve” value [6] of the same compound?
Its value is 0.65±0.0044.

What about the “reduction of axonal circularity compared to NDM” value ([6]; sciatic nerve) of the same compound?
The value was 10.3%.

And the “altered myelination pattern: decompaction” value [6, 11]?
Its value is 6.35%.

What about the “altered myelination pattern: focal lysis” value [6, 11] of the same compound?
Its value is 7.22%.

What about the “altered myelination pattern: infolding” value [6, 11] of the same compound?
Its value is 1.49%.

What about the “altered myelination pattern: splitting” value [6, 11] of the same compound?
The value was 0%.

What about the axon diameter of myelinated axons [6, 12] of the same compound?
The axon diameter of myelinated axons was 4.17 ± 0.1 µm.

What about the “index of circularity of axon” value [6, 12] of the same compound?
Its value is 0.70.

What about the “vascularity in sciatic nerves” value [7] of the same compound?
Its value is “increased vascularity”.

And the “upregulation of gene expression in vitro, compared to vorinostat and quisinostat” value [8]?
Its value is “superior properties”.

And the “paw withdrawal threshold (von Frey)” value ([9]; DM+HDACi group at 3 weeks of diabetes)?
Its value is 0.15 ± 0.09 g.

And the “paw withdrawal threshold (von Frey)” value ([9]; DM+HDACi group at 14 weeks after HDAC inhibitor injection, P<0.001 versus DM)?
Its value is 1.33 ± 0.30 g.

What about the “paw withdrawal thresholds, effect in words” value ([9]; FIG. 2A, 14 weeks after belinostat injection) of the same compound?
Its value is “recovered to nondiabetic group”.

For `O=C(CCCCCCC(=O)Nc1ccccc1)NO` [SAHA, suberoylanilide hydroxamic acid], which “blood-brain-barrier (BBB) crossing” value [10] is on record?
Its value is “can cross the blood-brain-barrier”.
